# Assay results published in patent US9381142B2, “Olfactory adaptation and cross-adapting agents to reduce the perception of body odors” (Monell Chemical Senses Center, priority 2002, dated 2016).
# Experiments:
# [1] = system: female stress-derived axillary odor; assay: Cross-adaptation of female stress-derived axillary odor (odor panel, magnitude estimation of perceived intensity); type: in vivo, human; settings: for Magnitude of Reduction of Intensity of Female Stress-Derived Odor (FSDO), Males: female stress-derived odor perceived by men; for Magnitude of Reduction of Intensity of Female Stress-Derived Odor (FSDO), Females: female stress-derived odor perceived by women
# From the text: (§1) The procedure relies upon an individual constantly sniffing an adapting agent, such as a fragrance, and occasionally a test odorant. Perceived intensity of the test odorant is obtained by using psychophysical, magnitude-estimation procedures. These perceived intensities are obtained every 30 seconds over the test period, and are then compared with baseline perceived intensities obtained before the individual began sniffing the adapting agent. Throughout the testing we observe adaptation to the adapting agent. Results during trials with an inserted test odorant, such as the axillary odor used here, are believed to be reasonably predictive. If the perceived intensity of the test odorant decreases during the test, then the adapting agent cross-adapts the test odorant and becomes a cross-adapting agent. If the cross-adapting agent is itself not offensive, then the cross-adapting agent becomes a candidate for use in formulations in consumer products to ameliorate malodors, such as axillary odor or fecal/urine odors, and odors related to the female menstrual cycle.
# (§2) Collection of secretions: Apocrine secretions obtained under stressed conditions provided the axillary odor that was used as the test odorant to evaluate the effectiveness of various adapting agents. Secretions were obtained from males (ages 20 to 60 years) and females (ages 20 to 40 years) in good health. […] Volunteers prepared their axillae for collection of apocrine secretions by refraining from deodorant use for 3 days and shaving their axillae the morning of the collection day.
# (§3) Volunteers were rested in a supine position. The axillary regions were washed with isopropanol-soaked pads and injected intradermally with 1:10,000 adrenalin (in physiologic saline). This injection stimulated the secretion of apocrine gland secretions, which were collected in 10 μl pipettes, passed into 0.25 ml Eppendorf tubes, and stored on ice (or frozen for longer storage). The amount of secretion collected varied greatly with the individual subject (≦10 μl). The apocrine secretions from each volunteer were combined by consecutively washing each Eppendorf tube with 2×300 μl of doubly distilled water. This aqueous-apocrine fluid was transferred to a 5 ml round-bottomed flask for hydrolysis. X-N. Zeng, J. J. Leyden, J. G. Brand, A. I. Spielman, K. J. McGinley, G. Preti, An Investigation of Human Apocrine Gland Secretion for Axillary Odor Precursors, 18 J. Chem. Ecol. 1039-1055 (1992); X-N. Zeng, J. J. Leyden, A. I. Spielman and G. Preti Analysis of the characteristic human female axillary odors: Qualitative comparison to males. 22 J. Chem. Ecol. 237-257 (1996).
# (§4) Production of odor: To produce quantities of stress-derived axillary odor for testing purposes, we hydrolyzed the apocrine secretion. The aqueous solution was refluxed for 20 min with 0.5 ml, 5% aqueous sodium hydroxide under a stream of nitrogen. The mixture was allowed to cool to room temperature, and then it was cooled in ice prior to being acidified with 6 N HCl to pH 2. The resulting axillary odor developed in the reaction mixture upon acidification was used as the test odorant. The axillary odors generated by this in vitro technique are analogous to the malodors produced by stressed individuals.
# A separate panel of 24 subjects (12 males and 12 females) tested samples of female stress-derived axillary odor with potential cross-adapting agents, some of which were not included in Example 1 above. Some of the subjects assessing the effectiveness of cross-adaptation of male stress-derived axillary odor were also used in the experiment with female secretions. However, these two experiments were treated as independent events. All panel members were screened for adequate use of magnitude estimation and further trained in its use during two to three training sessions. […]
# [2] = system: male stress-derived axillary odor; assay: Cross-adaptation of male stress-derived axillary odor (odor panel, magnitude estimation of perceived intensity); type: in vivo, human; settings: for Magnitude of Reduction of Intensity of Male Stress-Derived Odor (MSDO), Males: male stress-derived odor perceived by men; for Magnitude of Reduction of Intensity of Male Stress-Derived Odor (MSDO), Females: male stress-derived odor perceived by women
# From the text: as §1, §2, §3, §4
# Sixteen (16) individuals (8 of each gender) served on an odor panel. Subjects ranged in age from 22 to 55 years (mean 32.7±10.6 s.d.), were not pregnant (by verbal report), and were all non-smokers. All panel members were screened for adequate use of magnitude estimation (some people have difficulties maintaining a ratio scale, i.e., when an odorant is half as strong as the previous, these people fail to provide a number that is half the previous estimate) and further trained in its use during 2-3 training sessions. All 16 subjects were tested with samples of male malodor compared to each of the potential cross-adapting agents. […]
# Note: key: best: Best = Superior Cross-Adaptation; good: Good = Adequate Cross-Adaptation; poor: Poor = Ineffective Cross-Adaptation.
Compound,"Magnitude of Reduction of Intensity of Female Stress-Derived Odor (FSDO), Males [1]","Magnitude of Reduction of Intensity of Female Stress-Derived Odor (FSDO), Females [1]","Magnitude of Reduction of Intensity of Male Stress-Derived Odor (MSDO), Males [2]","Magnitude of Reduction of Intensity of Male Stress-Derived Odor (MSDO), Females [2]"
"CC(C)=CCC(C)(C)C(=O)C(C)C [CLARITONE ®, 2,4,4,7-tetramethyl-oct-6-en-3-one]",best,good,best,best
"CC/C=C\CCO [Cis-3-Hexenol, cis-3-hexenol-1-ol]",best,good,good,good
"CC(C)=CCCC(C)CCO (stereo not drawn) [Citronellol 950, 3,7-dimethyl-6-octen-1-ol]",good,good,good,good
"C=CC(C)CCCC(C)(C)O (stereo not drawn) [Dihydromyrcenol, 2,6-dimethyl-7-octen-2-ol]",best,good,best,good
"C=CCCC(=O)C1=CCCC(C)(C)C1 [Dynascone 10, 1-(5,5-dimethyl-1-cyclohexen-1-yl)4-penten-1-one]",good,good,best,poor
"C=CCc1ccc(O)c(OC)c1 [Eugenol, 2-methoxy-1-hydroxy-4-allylbenzene]",good,good,best,poor
"CC(C)=CCCC(C)CCCC(C)C=O (stereo not drawn) [FARENAL ®, 2,6,10-trimethyl-9-undecenal]",good,poor,poor,poor
"CC1CC(C)(c2ccccc2)OC(C)O1 (stereo not drawn) [Floropal, 2,4,6-trimethyl-4-phenyl-1,3-dioxane]",best,best,good,poor
"CCCCCC1C(=O)CCC1CC(=O)OC (stereo not drawn) [HEDIONE ®, methyl dihydro jasmonate]",poor,poor,poor,poor
"CCCCCCOC(=O)c1ccccc1O [Hexyl Salicylate, hexyl-2-hydroxybenzoate]",poor,good,poor,poor
"CCCCCCC(C=O)=Cc1ccccc1 [Hexylcinnamic Aldehyde, alpha-hexylcinnamaldehyde]",good,poor,good,good
"CC(=O)C1(C)CC2=C(CCCC2(C)C)CC1C (stereo not drawn) [ISO E SUPER ®, octahydro-2,3,8,8-tetramethyl-2-acetonaphthone]",poor,poor,poor,poor
"C=CCOC(=O)COC1CCCCC1 [Isoananat, allyl cyclohexyloxyacetate]",good,poor,best,poor
"CC(=O)O[C@@H]1C[C@H](C)CC[C@H]1C(C)C [Menthyl Acetate rf, 4-menthyl-3-yl acetate]",good,good,best,poor
"CC(=O)OC1CCC(C(C)(C)C)CC1 (stereo not drawn) [Oryclone Special, 4-tertbutylcyclohexyl acetate]",best,poor,good,poor
"OCCc1ccccc1 [Phenylethyl Alcohol, phenylethyl alcohol]",good,poor,good,good
"CC(CO)CCCc1ccccc1 (stereo not drawn) [Rosaphen ®, 2-methyl-5-phenylpentan-1-ol]",good,poor,best,poor
"CC(C)=CC1CC(C)CCO1 (stereo not drawn) [Rose Oxide hc, 4-methyl-2-(2-methyl-1-propenyl)tetrahydro-2H-pyran]",good,good,poor,good
"CCC(=CCC1CC=C(C)C1(C)C)CO (stereo not drawn) [Sandranol ®, 2-ethyl-4-(2,2,3-trimethyl-3-cyclopenten-1-yl)-2-buten-1-ol]",good,good,good,poor
"CC1=CC(C)C(C=O)CC1 (stereo not drawn) [Vertocitral, 2,4-dimethyl-3-cyclohexene-1-carboxaldehyde]",best,best,good,best
"O=C1CCCCCCCCCCCCCCO1 [cpd Supra, oxacyclohexadecan-2-one]",good,good,poor,poor
